Type in all cases: biochemical
In test [1] the target is T1, human VEGF receptor (VEGFR-2) (Homo sapiens, UniProt P35968).
T1 construct: The cytoplasmic domain of the human VEGF receptor (VEGFR-2) was expressed; His; made in house; host or cells: insect cells (baculovirus)
Briefly: VEGFR2 kinase assay. To be noted: His-VEGFR-2 cytoplasmic domain, 3.6 μM ATP; Table IV, amide or urea linker; read-out: VEGFR2 Enzyme IC50. The procedure, abridged:
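His-tagged VEGFR-2 cytoplasmic domain from baculovirus-infected insect cells phosphorylating plate-bound poly-Glu-Tyr (4:1). IC50 from blank-subtracted optical density versus compound concentration.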

In another test the target is PDGFβ (Homo sapiens, UniProt P09619). Briefly: PDGFβ enzyme assay. To be noted: Table IV, amide or urea linker.
Another test deals with VEGFR1 (Homo sapiens, UniProt P17948). Briefly: VEGFR1 enzyme assay. To be noted: Table IV, amide or urea linker.
Chain of VEGFR1 (P17948 27-1338, species assumed): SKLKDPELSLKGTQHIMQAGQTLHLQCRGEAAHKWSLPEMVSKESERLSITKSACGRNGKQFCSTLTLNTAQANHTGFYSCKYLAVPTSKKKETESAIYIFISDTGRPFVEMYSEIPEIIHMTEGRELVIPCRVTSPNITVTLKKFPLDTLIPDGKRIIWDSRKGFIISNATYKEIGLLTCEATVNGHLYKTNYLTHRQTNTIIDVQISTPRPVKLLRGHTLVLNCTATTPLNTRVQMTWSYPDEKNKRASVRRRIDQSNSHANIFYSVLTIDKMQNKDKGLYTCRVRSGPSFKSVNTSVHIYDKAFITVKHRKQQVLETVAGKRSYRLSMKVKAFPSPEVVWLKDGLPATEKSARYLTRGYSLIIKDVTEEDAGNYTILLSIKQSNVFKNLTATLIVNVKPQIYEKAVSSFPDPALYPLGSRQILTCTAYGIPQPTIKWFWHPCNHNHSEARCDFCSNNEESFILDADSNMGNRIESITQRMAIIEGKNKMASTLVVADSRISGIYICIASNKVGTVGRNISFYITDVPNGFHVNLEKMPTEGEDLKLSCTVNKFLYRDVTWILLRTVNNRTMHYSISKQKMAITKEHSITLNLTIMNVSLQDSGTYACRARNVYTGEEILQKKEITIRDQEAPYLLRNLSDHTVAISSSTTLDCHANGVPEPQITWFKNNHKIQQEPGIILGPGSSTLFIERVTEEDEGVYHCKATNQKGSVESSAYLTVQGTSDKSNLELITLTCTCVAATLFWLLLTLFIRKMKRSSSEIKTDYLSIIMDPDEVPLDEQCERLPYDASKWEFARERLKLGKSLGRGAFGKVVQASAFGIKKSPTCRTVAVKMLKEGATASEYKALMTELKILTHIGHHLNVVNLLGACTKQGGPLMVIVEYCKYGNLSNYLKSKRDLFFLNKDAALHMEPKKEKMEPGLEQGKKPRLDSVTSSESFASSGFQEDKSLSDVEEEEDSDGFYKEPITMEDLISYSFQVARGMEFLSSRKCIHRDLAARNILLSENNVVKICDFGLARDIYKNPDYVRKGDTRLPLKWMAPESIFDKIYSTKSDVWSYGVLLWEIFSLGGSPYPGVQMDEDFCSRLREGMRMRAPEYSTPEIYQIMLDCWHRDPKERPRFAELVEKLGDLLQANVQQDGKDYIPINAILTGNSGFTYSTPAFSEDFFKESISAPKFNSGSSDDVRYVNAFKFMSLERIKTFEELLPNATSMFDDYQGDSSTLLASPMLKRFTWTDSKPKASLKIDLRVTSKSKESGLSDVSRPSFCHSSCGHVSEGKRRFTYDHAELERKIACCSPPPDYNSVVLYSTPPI

Chain of PDGFβ (P09619 33-1106): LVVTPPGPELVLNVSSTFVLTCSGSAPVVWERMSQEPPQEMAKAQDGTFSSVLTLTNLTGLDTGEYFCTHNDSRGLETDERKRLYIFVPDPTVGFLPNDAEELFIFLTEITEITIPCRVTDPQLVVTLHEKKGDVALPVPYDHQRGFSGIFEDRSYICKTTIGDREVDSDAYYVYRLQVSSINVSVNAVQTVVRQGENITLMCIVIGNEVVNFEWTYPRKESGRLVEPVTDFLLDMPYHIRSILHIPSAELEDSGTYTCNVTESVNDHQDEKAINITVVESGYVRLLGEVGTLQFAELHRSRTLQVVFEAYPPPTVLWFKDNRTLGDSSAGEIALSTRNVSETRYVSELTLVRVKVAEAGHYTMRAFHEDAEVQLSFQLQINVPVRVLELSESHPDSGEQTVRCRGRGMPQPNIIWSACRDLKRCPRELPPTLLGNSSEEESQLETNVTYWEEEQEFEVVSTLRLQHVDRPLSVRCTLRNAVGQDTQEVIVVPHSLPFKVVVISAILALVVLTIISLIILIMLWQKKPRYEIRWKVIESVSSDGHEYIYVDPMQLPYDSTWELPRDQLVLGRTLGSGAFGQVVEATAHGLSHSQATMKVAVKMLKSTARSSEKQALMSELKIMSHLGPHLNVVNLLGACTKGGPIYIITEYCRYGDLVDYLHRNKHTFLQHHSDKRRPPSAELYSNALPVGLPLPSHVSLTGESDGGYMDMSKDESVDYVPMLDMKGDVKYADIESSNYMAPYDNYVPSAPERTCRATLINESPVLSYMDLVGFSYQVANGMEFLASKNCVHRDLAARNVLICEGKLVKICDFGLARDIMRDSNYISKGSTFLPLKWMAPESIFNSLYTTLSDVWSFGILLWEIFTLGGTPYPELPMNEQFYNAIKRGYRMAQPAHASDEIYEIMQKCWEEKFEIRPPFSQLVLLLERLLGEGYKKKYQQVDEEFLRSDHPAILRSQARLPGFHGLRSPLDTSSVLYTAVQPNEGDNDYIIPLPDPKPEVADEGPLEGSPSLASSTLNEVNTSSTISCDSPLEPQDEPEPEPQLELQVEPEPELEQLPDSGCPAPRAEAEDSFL
T1 sequence (P35968 786-1356 limits assumed): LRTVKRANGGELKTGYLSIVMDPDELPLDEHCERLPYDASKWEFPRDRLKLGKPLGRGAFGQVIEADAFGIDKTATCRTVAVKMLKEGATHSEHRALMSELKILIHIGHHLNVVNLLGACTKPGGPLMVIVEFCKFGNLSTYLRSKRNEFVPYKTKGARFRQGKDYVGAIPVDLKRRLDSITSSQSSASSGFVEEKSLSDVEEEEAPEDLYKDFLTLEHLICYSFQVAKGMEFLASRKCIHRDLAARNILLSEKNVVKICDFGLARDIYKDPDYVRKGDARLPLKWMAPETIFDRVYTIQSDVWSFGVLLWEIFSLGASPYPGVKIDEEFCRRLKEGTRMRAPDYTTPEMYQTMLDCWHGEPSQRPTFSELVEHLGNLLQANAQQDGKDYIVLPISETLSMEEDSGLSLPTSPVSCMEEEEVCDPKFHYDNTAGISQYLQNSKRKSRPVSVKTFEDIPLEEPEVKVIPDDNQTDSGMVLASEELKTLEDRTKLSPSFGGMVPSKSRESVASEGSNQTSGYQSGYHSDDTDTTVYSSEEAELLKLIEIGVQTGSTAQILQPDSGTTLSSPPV

With `Cc1ccc(F)c(NC(=O)Nc2ccc(Oc3ccnc(-c4cc(C(=O)NCCCN(CC(=O)O)CC(=O)O)c[nH]4)c3)cc2)c1` [Example 214, 2,2′-[(3-{[(5-{4-[4-({[(2-fluoro-5-methylphenyl)amino]carbonyl}amino)phenoxy]pyridin-2-yl}-1H-pyrrol-3-yl)carbonyl]amino}propyl)imino]diacetic acid], the values for the IC50 (in test [1]; at PDGFβ; on VEGFR1) were 22 nM, 23 nM and 8 nM, respectively.

For `Cc1ccc(F)c(NC(=O)Nc2ccc(Oc3ccnc(-c4cc(C(=O)N5CCN(CC(=O)O)CC5)c[nH]4)c3)cc2F)c1` [Example 218, {4-[(5-{4-[3-fluoro-4-({[(2-fluoro-5-methylphenyl)amino]carbonyl}amino)phenoxy]pyridin-2-yl}-1H-pyrrol-3-yl)carbonyl]piperazin-1-yl}acetic acid], the IC50 (usually the concentration that gives 50% inhibition) in test [1] was 5 nM; against PDGFβ it was 16 nM; against VEGFR1 it was 9 nM.

Take `Cc1ccc(F)c(NC(=O)Nc2ccc(Oc3ccnc(-c4cc(C(=O)NCCCN5CCCC5C(=O)O)c[nH]4)c3)cc2F)c1` (stereo not drawn) [Example 220, 1-(3-{[(5-{4-[3-fluoro-4-({[(2-fluoro-5-methylphenyl)amino]carbonyl}amino)phenoxy]pyridin-2-yl}-1H-pyrrol-3-yl)carbonyl]amino}propyl)pyrrolidine-2-carboxylic acid]: the IC50 in test [1] turned out to be 13 nM; at PDGFβ, 23 nM; at VEGFR1 it was 11 nM.

In the case of `Cc1ccc(F)c(NC(=O)Nc2ccc(Oc3ccnc(-c4cc(C(=O)NCCN)c[nH]4)c3)cc2F)c1` [Example 222, N-(2-aminoethyl)-5-{4-[3-fluoro-4-({[(2-fluoro-5-methylphenyl)amino]carbonyl}amino)phenoxy]pyridin-2-yl}-1H-pyrrole-3-carboxamide], the results for the half-maximal inhibitory concentration (IC50) (in test [1]; at PDGFβ; at VEGFR1) were 9 nM, 29 nM and 15 nM, respectively.

As to `Cc1ccc(F)c(NC(=O)Nc2ccc(Oc3ccnc(-c4cc(C(=O)NCCCN)c[nH]4)c3)cc2F)c1` [Example 223, N-(3-aminopropyl)-5-{4-[3-fluoro-4-({[(2-fluoro-5-methylphenyl)amino]carbonyl}amino)phenoxy]pyridin-2-yl}-1H-pyrrole-3-carboxamide], the IC50 in test [1] stood at 13 nM; at PDGFβ, 16 nM; at VEGFR1 it was 12 nM.

In the case of `COC(=O)C1CCCN1CCCNC(=O)c1c[nH]c(-c2cc(Oc3ccc(NC(=O)Nc4cc(C)ccc4F)c(F)c3)ccn2)c1` (stereo not drawn) [Example 228, methyl 1-(3-{[(5-{4-[3-fluoro-4-({[(2-fluoro-5-methylphenyl)amino]carbonyl}amino)phenoxy]pyridin-2-yl}-1H-pyrrol-3-yl)carbonyl]amino}propyl)pyrrolidine-2-carboxylate], the IC50 amounted to 11 nM in test [1], 9 nM at PDGFβ and 8 nM at VEGFR1.

As for `Cc1ccc(F)c(NC(=O)Nc2ccc(Oc3ccnc(-c4cc(C(=O)NCCCC(=O)OCC(CO)(CO)CO)c[nH]4)c3)cc2)c1` [Example 234, 3-hydroxy-2,2-bis(hydroxymethyl)propyl 4-{[(5-{4-[4-({[(2-fluoro-5-methylphenyl)amino]carbonyl}amino)phenoxy]pyridin-2-yl}-1H-pyrrol-3-yl)carbonyl]amino}butanoate], the IC50 in test [1] is 8 nM; on PDGFβ, 17 nM; on VEGFR1 it was 11 nM.

`Cc1ccc(F)c(NC(=O)c2ccc(F)c(Oc3ccnc(-c4cc(C(=O)NCCCO)c[nH]4)c3)c2)c1` [Example 244, 5-[4-(2-fluoro-5-{[(2-fluoro-5-methylphenyl)amino]carbonyl}phenoxy)pyridin-2-yl]-N-(3-hydroxypropyl)-1H-pyrrole-3-carboxamide]: the IC50 was determined as 12 nM in test [1], 94 nM against PDGFβ and 31 nM on VEGFR1.

Turning to `Cc1ccc(F)c(NC(=O)Nc2ccc(Oc3ccnc(-c4cc(C(=O)NCCCN5CCCC5C(=O)O)c[nH]4)c3)cc2)c1` (stereo not drawn) [Example 247, 1-(3-{[(5-{4-[4-({[(2-fluoro-5-methylphenyl)amino]carbonyl}amino)phenoxy]pyridin-2-yl}-1H-pyrrol-3-yl)carbonyl]amino}propyl)pyrrolidine-2-carboxylic acid], the IC50 is 15 nM in test [1], 21 nM at PDGFβ and 25 nM against VEGFR1.

For `COC(=O)CC[C@H](NC(=O)c1c[nH]c(-c2cc(Oc3cc(C(=O)Nc4cc(C)ccc4F)ccc3F)ccn2)c1)C(=O)OC` [Example 249, dimethyl 2-[({5-[4-(2-fluoro-5-{[(2-fluoro-5-methylphenyl)amino]carbonyl}phenoxy)pyridin-2-yl]-1H-pyrrol-3-yl}carbonyl)amino]pentanedioate], the values for the IC50 (in test [1]; against PDGFβ; on VEGFR1) were 33 nM, 55 nM and 46 nM, respectively.

`Cc1ccc(F)c(NC(=O)Nc2ccc(Oc3ccnc(-c4cc(C(=O)NCCCN)c[nH]4)c3)cc2)c1` [Example 250, N-(3-aminopropyl)-5-{4-[4-({[(2-fluoro-5-methylphenyl)amino]carbonyl}amino)phenoxy]pyridin-2-yl}-1H-pyrrole-3-carboxamide]: the 50% inhibitory concentration (IC50) in test [1] was found to be 24 nM; on PDGFβ it was 54 nM; against VEGFR1 it was 8 nM.

Regarding `Cc1ccc(F)c(NC(=O)Nc2ccc(Oc3ccnc(-c4cc(C(=O)NCCCNC(=O)OC(C)(C)C)c[nH]4)c3)cc2)c1` [Example 251, tert-butyl (3-{[(5-{4-[4-({[(2-fluoro-5-methylphenyl)amino]carbonyl}amino)phenoxy]pyridin-2-yl}-1H-pyrrol-3-yl)carbonyl]amino}propyl)carbamate], the half-inhibitory concentration (IC50) in test [1] is 46 nM; on PDGFβ, 79 nM; at VEGFR1, 18 nM.

For the compound `Cc1ccc(F)c(NC(=O)c2ccc(F)c(Oc3ccnc(-c4cc(C(=O)NCCCN)c[nH]4)c3)c2)c1` [Example 252, N-(3-aminopropyl)-5-[4-(2-fluoro-5-{[(2-fluoro-5-methylphenyl)amino]carbonyl}phenoxy)pyridin-2-yl]-1H-pyrrole-3-carboxamide], the IC50 in test [1] is 24 nM; on PDGFβ it was 99 nM; against VEGFR1, 25 nM.

As for `Cc1ccc(F)c(NC(=O)c2ccc(F)c(Oc3ccnc(-c4cc(C(=O)NCCCNC(=O)OC(C)(C)C)c[nH]4)c3)c2)c1` [Example 253, tert-butyl {3-[({5-[4-(2-fluoro-5-{[(2-fluoro-5-methylphenyl)amino]carbonyl}phenoxy)pyridin-2-yl]-1H-pyrrol-3-yl}carbonyl)amino]propyl}carbamate], the figures for the IC50 (in test [1]; against PDGFβ; at VEGFR1) were 64 nM, 200 nM and 36 nM, respectively.

Consider `Cc1ccc(F)c(NC(=O)c2ccc(F)c(Oc3ccnc(-c4cc(C(=O)NCCCN5CCOCC5)c[nH]4)c3)c2)c1` [Example 254, 5-[4-(2-fluoro-5-{[(2-fluoro-5-methylphenyl)amino]carbonyl}phenoxy)pyridin-2-yl]-N-(3-morpholin-4-ylpropyl)-1H-pyrrole-3-carboxamide], for which the IC50 in test [1] worked out at 24 nM; against PDGFβ it was 35 nM; at VEGFR1 it was 35 nM.

As for `CCNC(=O)[C@H](CCC(=O)O)NC(=O)c1c[nH]c(-c2cc(Oc3cc(C(=O)Nc4cc(C)ccc4F)ccc3F)ccn2)c1` [Example 255, 5-(ethylamino)-4-[({5-[4-(2-fluoro-5-{[(2-fluoro-5-methylphenyl)amino]carbonyl}phenoxy)pyridin-2-yl]-1H-pyrrol-3-yl}carbonyl)amino]-5-oxopentanoic acid], the IC50 in test [1] was 28 nM; against PDGFβ, 185 nM; at VEGFR1 it was 44 nM.

The values above are taken from patent US8906944B2, “Compounds as tyrosine kinase modulators” (Allergan, Inc., priority 2009, dated 2014).
